Measurements as given in patent US6492427B2, “Methods for treating multiple sclerosis” (priority 1998, dated 2002).
Entries after “also recorded” stand apart in the source; their conditions may differ. *1 amine or outer side, *2 acyl side, *3 side chain or, on linkers, in order; H or OH if unused. Where a SMILES comes first, the peptide text is derived from it. Bridges are numbered along the chain shown (N, C = ends). Roman numbers before positions name the chains, in order. [ ]: non-standard residue; d: D form. Actinocin(9to1) = Cc1c2oc3c(C)ccc(C(=O)[*:1])c3nc-2c(C(=O)[*:2])c(N)c1=O; NMeV = CN[C@H](C(=O)O)C(C)C; Sar = CNCC(=O)O

Key:
Assay type in all cases: cell-based, rat
oligodendroglial cells = experiment: Nuclear integrity assay: counts of intact nuclei (Zap-oglobin lysis) after insulin and IGF-I withdrawal; settings: for counts of intact nuclei compared to BM: alone in BM at 10^−5, 10^−7 and 10^−9 M; for numbers of intact nuclei for IGF-I and insulin withdrawn cells: alone in BM, actinomycin 1, 2.5, 5 μg/ml, cycloheximide 1, 5, 10, 50 μg/ml
Description: In order to examine insulin and IGF-I dependent survival of the cells of the oligodendroglial lineage, cells were trophically deprived for a period of 24 hours at 16 DIV.
Cells were trophically withdrawn by replacing the media with a serum free, chemically-defined base media (BM) lacking insulin and IGF-I (Bottenstein et al., 1988). The base media consisited of DMEM supplemented with penicillin (50 IU/ml); streptomycin (50 μg/ml); 1 mM sodium pyruvate; 50 μg/ml transferrin; 0.005 μg/ml sodium selenite; 16 μg/ml putrescine; 0.006 μg/ml progesterone and 0.1 mg/ml bovine serum albumin. All the cells were washed with BM twice before exposing them to individual treatment conditions. Control cells were washed and placed in BM supplemented with 2.5 ng/ml IGF-I and 5 μg/ml insulin to form the insulin media (IM).
Cell survival in the cultures was assessed according to the method of (Soto and Sonnenschein, 1985). After washing and treatment in BM, BM-D9, IM and IM-D9 for 24 h, cells were harvested, centrifuged at 500 rpm for 5 min and the supernatant removed. Pelleted cells were then lysed with 200 μl of 10% Zap-oglobin (Coulter Electronics, FL, USA). The lysing agent is a detergent containing solution that lyses the plasma membrane but leaves the nuclei intact. The lysed solution was collected and vortexed. A small volume (10 μl) of the solution was removed and intact nuclei were counted using a haemocytometer. To be counted, nuclei had to show a completely intact smooth outer border. Counts of intact nuclei were pooled for three or four experiments (a total of 15-20 wells were used for each treatment condition). each treatment condition).
OLs at 16 DIV were exposed to the different drug treatment conditions for 24 h, following which, the nuclear integrity assay was performed. On the day of the treatment, the cells growing in Nunc 24 well plates were washed twice with base media. Each treatment well received 50 μl of the appropriate drug solution and the total volume in the well was made up to 500 μl with either BM or IM.
Nuclear counts were obtained from quadruplicate wells per treatment condition and the experiment was repeated twice. OLs were exposed to the following treatment conditions: 1) IM, 2) BM, 3) BM-D9, 4) (−)-Desmethyldeprenyl (BM-Ds9), 5) IM-D9 and 6) IM +10^−9 M (−)-Desmethyldeprenyl (IM-Ds9).
The treatment conditions with the three general cytochrome P450 blockers were: 1) BM+Proadifen (2.5, 10, 25 μM), 2) BM-D9+Proadifen (2.5, 10, 25 μM), 3) BM-Ds9+Proadifen (2.5, 10, 25 μM), 4) BM+Metapyrone (50 μM), 5) BM-D9+Metapyrone (50 μM), 6) BM-Ds9+Metapyrone (50 μM), 7) BM+Piperonyl butoxide (100 μM), 5) BM-D9+Piperonyl butoxide (100 μM), 6) BM-Ds9+Piperonyl butoxide (100 μM).
OLs at 16 DIV were washed twice with base media and exposed either to actinomycin, a transcriptional blocker or cycloheximide, a translational blocker for 24 h. […] Actinomycin and cycloheximide were either used with base media alone or in combination with 10^−9 M (−)-desmethyldeprenyl. Each treatment well received 50 μl of the drug solution and the total volume of the well was made up to 500 μl with base media.
Counts of intact nuclei, obtained from quadruplicate wells per treatment condition were used to quantitate the effects of the transcriptional and translational blockers. Each experiment was repeated twice for experimental density series-II.

[1] = test system: mitochondrial membrane potential (ΔψM) of oligodendroglial cells; experiment: CMTMR estimation of mitochondrial membrane potential by confocal microscopy; design: ΔΨM (18 h): key to the marks not given beside the values; settings: for capacity of (−)-deprenyl and (−)-desmethyldeprenyl to maintain ΔψM in OL mitochondria: 10^−5 M with 10^−9 M (−)-deprenyl or (−)-desmethyldeprenyl in BM; for increases in ΔψM induced by (−)-deprenyl on OL mitochondria: proadifen 10 μM, metyapone 50 μM or piperonyl butoxide 100 μM with 10^−9 M (−)-deprenyl in BM
Description: The ΔψM was assessed by the addition of a lipophilic, potentiometric dye, chloromethyl-tetramethylrhodamine methyl ester (CMTMR, Mitotracker Orange™ Molecular Probes, Eugene, Oreg.). The CMTMR dye reacts with the thiol groups on proteins and peptides to form aldehyde fixable conjugates. Entry of the negatively charged mitochondrial matrix compartment is proportional to the difference in the membrane potential. Therefore, the CMTMR fluorescence labels the mitochondrial membrane potential generated due to the negativity difference between the mitochondrial matrix and the outside of the mitochondria. Upon cell fixation, CMTMR remains in the mitochondria and is not washed out unlike other mitochondrial potentiometric dyes like rhodamine123.
Oligodendrocytes at 16 DIV were placed in trophically deprived BM for 18 h or treated with BM-D9 or BM-Ds9. […] The cells were incubated in CMTMR at 37° C. for 15 min. The cells were then fixed with 4% cold paraformaldehyde on ice for 30 min and washed twice with 0.1M PBS. Consequently, the coverslips were mounted on glass slides with Aquamount (Gurr, England).
Individual mitochondria labeled with CMTMR were resolved by confocal microscopy. A Leica true confocal scanning (TCS) 4D microscope coupled to an argon-krypton laser (Omnichrome, USA) was used for cell imaging. A pinhole size of 20 with an excitation filter wavelength of 568 nm and an emission filter wavelength of 590 nm was used to image the CMTMR labeled mitochondria. Each field of the coverslip was imaged using an oil-immersion, 100 X, 1.3 N.A. objective at 512 by 512 by 8 bits per pixel resolution, background offset of −1 and line averaged 32 times in bi-directional line scan mode. Care was taken not to exceed the dynamic range of the gray value display. The confocal images obtained were saved on an optical drive in a tagged image file format (TIFF).
Fluorescence intensity of individual mitochondria was measured using the Metamorph™ program. Metamorph™ compiles measurements of objects in a 8-bit image ranging from gray values 0 (background) and 255. In order to obtain fluorescence intensity measures, a rectangular region tool of 2×2 pixels was used to measure two randomly selected areas within each mitochondrion. A total of ten mitochondria obtained equally from all the regions of each cell were measured within each image. About 20 images were analyzed for each treatment condition thereby giving a sum of about 400 mitochondrial fluorescence intensity measures. The raw values were then further graphed and analyzed with the Microcal Origin 4.1 program. Frequency count was performed on the data, which classified the data in ordered bins. A frequency distribution was obtained with lower bin value set at 0 and higher bin value set at 260.

[2] = test system: MBP, PLP, GC and CNPase-I; experiment: Western blot of PROL and OL marker proteins; settings: BM + 10^−9 M, 18 h

## C#CCN(C)C(C)Cc1ccccc1 (single isomer, unassigned; (+)) [(+)-deprenyl]
Oligodendroglial cells; BM with 10^−5, 10^−7 and 10^−9 M, 24 h
  concentration-survival relationship, numbers of intact nuclei: did not alter the numbers of intact nuclei from the values found for BM

## CC(N)Cc1ccccc1 (single isomer, unassigned; (-)) [(−)-amphetamine]
Oligodendroglial cells; 10^−3, 10^−5, 10^−7, 10^−9 M in combination with 10^−9 M (−)-deprenyl in BM, 24 h
  capacity of (−)-deprenyl to increase survival of oligodendroglial cells: markedly reduced the capacity of (−)-deprenyl to increase the survival
Oligodendroglial cells; 10^−5 M with 10^−9 M (−)-desmethyldeprenyl in BM, 24 h
  capacity of 10^−9 M (−)-desmethyldeprenyl to increase survival of oligodendroglial cells: completely eliminated the capacity of 10^−9 M (−)-desmethyldeprenyl to increase the survival
Oligodendroglial cells; 24 h
  counts of intact nuclei compared to BM: did alter the counts of intact nuclei
[1]; 18 h
  capacity of (−)-deprenyl and (−)-desmethyldeprenyl to maintain ΔψM in OL mitochondria: reduce the capacity of (−)-deprenyl and (−)-desmethyldeprenyl to maintain ΔψM

## C#CCN[C@H](C)Cc1ccccc1 [(−)-desmethyldeprenyl]
Oligodendroglial cells; BM + 10^−9 M, 24 h, metabolite experiments (FIG. 11)
  increase in counts of intact nuclei compared to those for BM: 197%
Oligodendroglial cells; IM + 10^−9 M, 24 h, metabolite experiments (FIG. 11)
  numbers of intact nuclei relative to IM: 103%
Oligodendroglial cells; OL cell survival, relative to control (IM)
  Survival (24 h): ++++
[2]
  band densities for MBP, CNP-ase I and PLP compared to IM: exceed those for IM
  immunodensity of marker proteins (MBP, PLP, GC, CNPase-I) compared to BM: marked increase in immunodensity compared to BM
[1]; BM + 10^−9 M, 18 h
  mitochondrial CMTMR fluorescence distributions (ΔψM) in ASTs, PROLs and OLs: not significantly different to those found for IM; also recorded: prevented the decrease in ΔψM
[1]; OL, relative to control (IM)
  ΔΨM (18 h): ++++

## CN[C@@H](C)Cc1ccccc1 [(−)-methamphetamine]
Oligodendroglial cells; 10^−5, 10^−7, 10^−9 M in combination with 10^−9 M (−)-deprenyl in BM, 24 h
  increase in numbers of intact nuclei induced by (−)-deprenyl: significantly reduced the increase in numbers of intact nuclei induced by (−)-deprenyl in a graded concentration dependent manner
Oligodendroglial cells; 24 h
  counts of intact nuclei compared to BM: did alter the counts of intact nuclei
[1]; 18 h
  capacity of (−)-deprenyl and (−)-desmethyldeprenyl to maintain ΔψM in OL mitochondria: reduce the capacity of (−)-deprenyl and (−)-desmethyldeprenyl to maintain ΔψM

## Cc1c2oc3c(C)ccc(C(=O)N[C@@H]4C(=O)N[C@H](C(C)C)C(=O)N5CCC[C@H]5C(=O)N(C)CC(=O)N(C)[C@@H](C(C)C)C(=O)O[C@@H]4C)c3nc-2c(C(=O)N[C@@H]2C(=O)N[C@H](C(C)C)C(=O)N3CCC[C@H]3C(=O)N(C)CC(=O)N(C)[C@@H](C(C)C)C(=O)O[C@@H]2C)c(N)c1=O [actinomycin] (I: T[dV]P[Sar][NMeV] / II: T[dV]P[Sar][NMeV]; ester I:1-I:C, II:1-II:C; linker I:N-II:N via Actinocin(9to1))
Oligodendroglial cells; 24 h
  numbers of intact nuclei for IGF-I and insulin withdrawn cells: Neither agent altered the numbers of intact nuclei

## C[C@@H]1C[C@@H]([C@H](O)CC2CC(=O)NC(=O)C2)C(=O)[C@@H](C)C1 [cycloheximide]
Oligodendroglial cells; 24 h
  numbers of intact nuclei for IGF-I and insulin withdrawn cells: Neither agent altered the numbers of intact nuclei

## CC(C)(C(=O)c1cccnc1)c1cccnc1 [metapyrone, 2-methyl-1,2-di(3-pyridyl)-1-propanone]
[1]; 18 h
  increases in ΔψM induced by (−)-deprenyl on OL mitochondria: blocked the increases in ΔψM induced by (−)-deprenyl

## CCCC(C(=O)OCCN(CC)CC)(c1ccccc1)c1ccccc1 [proadifen]
Oligodendroglial cells; proadifen 2.5 μM with 10^−9 M (−)-deprenyl in BM, 24 h
  number of intact nuclei when compared to IM: 144%
Oligodendroglial cells; proadifen 10 μM with 10^−9 M (−)-deprenyl in BM, 24 h
  number of intact nuclei when compared to IM: 109%
Oligodendroglial cells; proadifen 25 μM with 10^−9 M (−)-deprenyl in BM, 24 h
  number of intact nuclei when compared to IM: 91%
Oligodendroglial cells; proadifen 2.5, 10, 25 μM alone in BM, 24 h
  intact nuclei values for BM only: did alter the values for BM only
Oligodendroglial cells; proadifen 2.5, 10, 25 μM with 10^−9 M (−)-desmethyldeprenyl in BM, 24 h
  increase in intact nuclei induced by 10^−9 M (−)-desmethyldeprenyl: did not reduce the increase in intact nuclei
[1]; 18 h
  increases in ΔψM induced by (−)-deprenyl on OL mitochondria: blocked the increases in ΔψM induced by (−)-deprenyl
